# In ChEMBL document CHEMBL1201862, “PubChem BioAssay data set” (2004):
# Structures can show the parent of a compound that is named as a salt. Calls of active or inactive are those of the source.
# Tests used:
# [1] = viability of HCT116 lacking mutant beta-catenin – cell-based, human colon tumor, dose response (AID 1045); type: functional;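 further: HCT116 colon tumor cells with beta catenin knocked out; cells exposed to compound for 60 hours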
# [2] = viability of PTEN-deleted HCT116 cells – cell-based, HCT116 PTEN knockout, dose response (AID 1047); type: functional;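 further: HCT116 colon tumor cells with PTEN knocked out; cells exposed to compound for 60 hours before readout; potency for loss of cell viability measured by luminescence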
# [3] = target: T1, Hepatocyte nuclear factor 4-alpha (Homo sapiens, UniProt P41235); type: functional, cell-based;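 further: biochemical luminescence-based dose-response counterscreen measuring inhibition of HNF4 dimerization, run alongside a screen for blockers of ABHD5–perilipin-5 interaction; split luciferase complementation of HNF4 fusion proteins in cell lysate measuring dimerization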
# T1 sequence (P41235 whole entry): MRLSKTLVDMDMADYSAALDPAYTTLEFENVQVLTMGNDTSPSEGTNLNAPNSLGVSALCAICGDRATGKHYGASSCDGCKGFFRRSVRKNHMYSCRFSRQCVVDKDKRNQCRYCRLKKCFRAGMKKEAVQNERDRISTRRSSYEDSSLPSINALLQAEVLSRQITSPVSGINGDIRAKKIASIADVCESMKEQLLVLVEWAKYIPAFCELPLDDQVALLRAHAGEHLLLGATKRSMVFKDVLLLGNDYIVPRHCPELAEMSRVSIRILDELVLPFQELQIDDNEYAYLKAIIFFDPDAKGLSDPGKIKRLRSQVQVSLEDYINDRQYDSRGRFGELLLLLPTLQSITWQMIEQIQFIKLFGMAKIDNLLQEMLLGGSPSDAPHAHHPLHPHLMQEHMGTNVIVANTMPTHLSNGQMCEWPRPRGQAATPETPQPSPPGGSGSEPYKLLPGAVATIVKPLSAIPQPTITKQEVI
# [4] = tested on: INS1; assay: INS-1E survival protection against cytokine death – cell-based, luminescence, retest, dose response (AID 449756); type: functional; details: Rattus norvegicus;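 further: cell death triggered by IL-1 beta plus TNF-alpha plus IFN-gamma mixture; protective hits raise ATP signal compared with cytokine alone wells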
# [5] = target: Heat shock protein HSP 90-alpha (Homo sapiens, UniProt P07900); type: functional, organism-based
# [6] = Luminescence Cell-Based Dose Retest to Confirm Inhibitors of Cancer Stem Cells. [Related pubchem assays (depositor defined):AID2717, AID2721]; type: functional; details: Homo sapiens
# [7] = loss of viability in HepG2 cells – cell-based, CellTiter-Glo, cherry-picked, cytotoxicity control for Shn3 inhibitor project, dose response (AID 624134); type: functional
# [8] = target: Protein Wnt-3a (Mus musculus, UniProt P27467); assay: antagonism of Wnt3a pathway luciferase reporter – Wnt-LIGHT cells, luminescence, selectivity assay for Gli-SUFU antagonist project, dose response (AID 651570); type: functional; details: read-out: IC50_Mean;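 further: Wnt-LIGHT reporter cells stimulated with conditioned medium from Wnt3a-producing cells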
# Protein Wnt-3a, sequence (P27467 whole entry): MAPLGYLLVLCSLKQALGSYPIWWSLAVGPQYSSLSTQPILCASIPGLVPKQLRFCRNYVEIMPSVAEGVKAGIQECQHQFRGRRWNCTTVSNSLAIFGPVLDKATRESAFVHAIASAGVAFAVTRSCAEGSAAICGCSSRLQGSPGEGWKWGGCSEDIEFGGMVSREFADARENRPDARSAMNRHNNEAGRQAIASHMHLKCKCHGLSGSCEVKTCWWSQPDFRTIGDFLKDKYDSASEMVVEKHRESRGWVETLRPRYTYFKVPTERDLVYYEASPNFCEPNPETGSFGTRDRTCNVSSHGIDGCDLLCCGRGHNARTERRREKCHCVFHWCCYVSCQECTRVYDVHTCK
# [9] = reduction of Shn3 3'UTR-driven luciferase in osteoblasts – cell-based, Clone20 osteoblasts, firefly luciferase, cherry-picked, dose response (AID 624132); type: functional;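 further: firefly luciferase luminescence from reporter carrying the Shn3 3'UTR in osteoblasts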
# [10] = bead-based luminescence quenchers, dual-tagged ARNT – biochemical, AlphaScreen, cherry-pick, artefact control for ARNT-TACC3 interaction inhibitor project, dose response (AID 651705); type: functional;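 further: AlphaScreen bead proximity signal that flags compounds interfering with the detection technology; potency reflects signal decrease which marks the compound as an assay artifact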
# [11] = target: T2, Protein RecA (Mycobacterium tuberculosis, UniProt P9WHJ3); assay: Fluorescence Cell-Free Homogeneous Dose Retest to Identify Inhibitors of RecA-Intein Splicing Activity. [Related pubchem assays (depositor defined):AID2097, AID2223, AID489010, AID492950]; type: functional
# T2 sequence (P9WHJ3 whole entry): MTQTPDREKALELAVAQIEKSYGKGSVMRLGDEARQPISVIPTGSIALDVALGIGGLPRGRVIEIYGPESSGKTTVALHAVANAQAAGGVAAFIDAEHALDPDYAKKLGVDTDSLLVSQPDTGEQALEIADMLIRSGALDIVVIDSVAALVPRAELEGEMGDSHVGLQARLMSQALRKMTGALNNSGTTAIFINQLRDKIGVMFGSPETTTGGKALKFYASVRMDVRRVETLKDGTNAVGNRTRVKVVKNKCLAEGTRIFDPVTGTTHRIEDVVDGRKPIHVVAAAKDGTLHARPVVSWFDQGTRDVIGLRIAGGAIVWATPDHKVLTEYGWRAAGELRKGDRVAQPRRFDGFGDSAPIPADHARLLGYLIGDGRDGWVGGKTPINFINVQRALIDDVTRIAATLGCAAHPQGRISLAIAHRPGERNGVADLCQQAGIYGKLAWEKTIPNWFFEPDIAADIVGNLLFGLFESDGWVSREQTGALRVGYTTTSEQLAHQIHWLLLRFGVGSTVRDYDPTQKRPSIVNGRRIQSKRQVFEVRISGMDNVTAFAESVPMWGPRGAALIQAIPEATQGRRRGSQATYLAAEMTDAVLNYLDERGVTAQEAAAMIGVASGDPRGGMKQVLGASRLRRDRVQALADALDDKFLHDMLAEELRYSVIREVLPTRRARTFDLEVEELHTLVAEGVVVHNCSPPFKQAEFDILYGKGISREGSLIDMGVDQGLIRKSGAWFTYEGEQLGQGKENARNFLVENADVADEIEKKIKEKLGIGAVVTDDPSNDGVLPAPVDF
# [12] = target: T3, Replicative DNA helicase DnaB (Mycobacterium tuberculosis, UniProt P9WMR3); assay: DnaB intein splicing inhibitors, dose response, biochemical, cell-free fluorescence (AID 449749); type: functional
# T3 sequence (P9WMR3 whole entry): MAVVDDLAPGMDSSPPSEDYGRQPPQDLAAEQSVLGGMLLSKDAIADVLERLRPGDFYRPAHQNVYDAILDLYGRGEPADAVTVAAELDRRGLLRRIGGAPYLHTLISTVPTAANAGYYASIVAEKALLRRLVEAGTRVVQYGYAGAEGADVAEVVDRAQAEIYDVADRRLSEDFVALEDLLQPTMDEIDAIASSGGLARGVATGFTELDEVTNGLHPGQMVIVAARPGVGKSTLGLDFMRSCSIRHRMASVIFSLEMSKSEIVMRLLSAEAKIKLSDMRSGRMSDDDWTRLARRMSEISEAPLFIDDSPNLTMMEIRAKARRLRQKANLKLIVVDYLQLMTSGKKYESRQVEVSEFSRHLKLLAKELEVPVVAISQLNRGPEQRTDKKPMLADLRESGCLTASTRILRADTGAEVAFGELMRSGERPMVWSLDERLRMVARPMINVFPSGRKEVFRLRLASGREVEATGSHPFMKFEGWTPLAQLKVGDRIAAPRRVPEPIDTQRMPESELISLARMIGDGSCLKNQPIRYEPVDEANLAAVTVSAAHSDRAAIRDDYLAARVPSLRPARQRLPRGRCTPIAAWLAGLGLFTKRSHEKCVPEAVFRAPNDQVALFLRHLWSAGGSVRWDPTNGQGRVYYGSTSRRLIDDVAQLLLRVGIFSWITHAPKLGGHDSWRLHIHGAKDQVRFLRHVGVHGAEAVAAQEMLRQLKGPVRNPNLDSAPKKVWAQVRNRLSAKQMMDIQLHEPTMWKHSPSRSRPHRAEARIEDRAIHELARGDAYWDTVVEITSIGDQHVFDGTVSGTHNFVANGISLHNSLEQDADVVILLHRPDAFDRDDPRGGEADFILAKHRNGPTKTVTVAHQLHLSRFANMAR
# [13] = target: T4, Aminopeptidase N (Plasmodium falciparum FcB1/Columbia, UniProt O96935); assay: malaria alanyl aminopeptidase activity blockers – biochemical, fluorogenic H-Leu-NHMec substrate, 1536-well (AID 1445); set-up: species or system Plasmodium falciparum 3D7, 3D7
# T4 sequence (O96935 whole entry): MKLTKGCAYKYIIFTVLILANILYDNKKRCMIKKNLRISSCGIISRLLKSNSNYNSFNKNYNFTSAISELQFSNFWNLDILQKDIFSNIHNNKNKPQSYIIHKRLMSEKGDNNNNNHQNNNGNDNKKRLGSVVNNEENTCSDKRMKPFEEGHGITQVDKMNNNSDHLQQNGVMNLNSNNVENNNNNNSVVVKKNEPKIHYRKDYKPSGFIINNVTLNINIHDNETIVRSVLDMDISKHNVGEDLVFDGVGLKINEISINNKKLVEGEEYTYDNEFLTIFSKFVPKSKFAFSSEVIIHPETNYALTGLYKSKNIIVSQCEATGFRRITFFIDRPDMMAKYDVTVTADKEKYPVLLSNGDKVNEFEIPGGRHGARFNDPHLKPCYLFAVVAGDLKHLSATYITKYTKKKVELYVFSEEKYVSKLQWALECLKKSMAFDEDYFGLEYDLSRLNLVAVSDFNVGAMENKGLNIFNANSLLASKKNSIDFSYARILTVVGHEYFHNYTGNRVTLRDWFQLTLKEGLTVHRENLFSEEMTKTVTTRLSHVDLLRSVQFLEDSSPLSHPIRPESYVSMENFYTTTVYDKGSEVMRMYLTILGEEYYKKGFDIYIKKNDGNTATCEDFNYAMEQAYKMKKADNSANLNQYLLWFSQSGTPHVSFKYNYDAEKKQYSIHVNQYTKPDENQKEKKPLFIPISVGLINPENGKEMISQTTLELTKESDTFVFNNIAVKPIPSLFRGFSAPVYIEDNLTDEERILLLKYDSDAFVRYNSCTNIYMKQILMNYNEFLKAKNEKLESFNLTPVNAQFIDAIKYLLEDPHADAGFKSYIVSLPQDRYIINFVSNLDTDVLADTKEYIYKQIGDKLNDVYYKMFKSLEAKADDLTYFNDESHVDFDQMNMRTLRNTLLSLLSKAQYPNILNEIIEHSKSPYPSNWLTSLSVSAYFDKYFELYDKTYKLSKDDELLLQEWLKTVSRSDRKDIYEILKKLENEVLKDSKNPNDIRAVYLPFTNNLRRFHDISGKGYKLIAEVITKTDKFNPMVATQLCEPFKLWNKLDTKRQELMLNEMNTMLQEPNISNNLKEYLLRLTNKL
# [14] = target: T5, Apoptotic protease-activating factor 1 (Homo sapiens, UniProt O14727); type: functional
# T5 sequence (O14727 whole entry): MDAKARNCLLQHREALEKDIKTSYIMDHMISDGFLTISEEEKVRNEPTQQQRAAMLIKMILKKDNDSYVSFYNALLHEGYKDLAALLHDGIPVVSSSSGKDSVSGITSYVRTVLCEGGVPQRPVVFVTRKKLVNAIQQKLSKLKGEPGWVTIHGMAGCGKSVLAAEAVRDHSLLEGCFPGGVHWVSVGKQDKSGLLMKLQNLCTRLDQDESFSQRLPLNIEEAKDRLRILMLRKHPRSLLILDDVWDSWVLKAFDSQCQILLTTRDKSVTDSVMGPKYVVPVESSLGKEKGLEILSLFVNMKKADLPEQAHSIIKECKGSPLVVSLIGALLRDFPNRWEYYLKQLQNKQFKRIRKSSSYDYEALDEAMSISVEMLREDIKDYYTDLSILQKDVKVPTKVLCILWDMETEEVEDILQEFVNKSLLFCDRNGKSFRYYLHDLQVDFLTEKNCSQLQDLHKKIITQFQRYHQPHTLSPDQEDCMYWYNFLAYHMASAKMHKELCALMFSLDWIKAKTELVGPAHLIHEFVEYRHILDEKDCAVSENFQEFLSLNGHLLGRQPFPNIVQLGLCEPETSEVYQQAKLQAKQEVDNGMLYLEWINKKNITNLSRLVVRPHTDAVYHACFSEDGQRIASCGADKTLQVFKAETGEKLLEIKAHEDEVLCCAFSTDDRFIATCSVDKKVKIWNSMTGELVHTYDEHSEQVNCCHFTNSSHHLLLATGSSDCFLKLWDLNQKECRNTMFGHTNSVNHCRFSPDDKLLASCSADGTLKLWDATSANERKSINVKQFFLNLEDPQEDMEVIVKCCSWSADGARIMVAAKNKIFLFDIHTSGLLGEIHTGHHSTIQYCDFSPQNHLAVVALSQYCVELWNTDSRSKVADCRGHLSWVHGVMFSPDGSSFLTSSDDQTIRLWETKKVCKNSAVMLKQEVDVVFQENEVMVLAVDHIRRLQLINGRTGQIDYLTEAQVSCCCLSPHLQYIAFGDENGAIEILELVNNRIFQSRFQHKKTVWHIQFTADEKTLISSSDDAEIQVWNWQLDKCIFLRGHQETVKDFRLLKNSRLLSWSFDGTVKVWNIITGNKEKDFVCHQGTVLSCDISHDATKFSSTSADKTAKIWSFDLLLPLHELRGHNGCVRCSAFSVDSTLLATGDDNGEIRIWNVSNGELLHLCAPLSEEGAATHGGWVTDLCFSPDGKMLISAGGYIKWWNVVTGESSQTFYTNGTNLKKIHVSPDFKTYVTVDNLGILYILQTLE
# [15] = viability of uninfected HEp-2 cells – cell-based, HTS, cytotoxicity control for RSV inhibitor project, dose response (AID 2410); type: functional; details: human respiratory syncytial virus
# [16] = NIH3T3 cell viability loss – ATP luminescence, mouse fibroblasts, counter-screen, dose response (AID 2010); type: functional, cell-based;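 further: cells exposed to compound for about 90 hours before reading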
# [17] = Trypanosoma cruzi growth suppression in host cells – NIH3T3 host cells, beta-gal luminescence, confirmation (AID 2044); type: functional, cell-based;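 further: intracellular parasites grown in NIH/3T3 mouse fibroblasts as host cells; luminescent beta-galactosidase reporter signal from transgenic T. cruzi replicating inside host cells; inhibitors lower the luminescence signal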
# [18] = tested on: Streptococcus sp. 'group A'; assay: Streptococcus pyogenes SK(-)GAS viability under kanamycin – luminescence, BacTiterGlo, confirmation, counter-screen for streptokinase expression inhibitor project, dose response (AID 1900); type: functional, organism-based
# [19] = tested on: Streptococcus; assay: GAS UMAA2166 growth inhibition – luminescence, BacTiterGlo, counter-screen for streptokinase expression inhibitor project, dose response (AID 1915); type: functional, organism-based;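 further: potency for reduction of bacterial viability or growth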
structure (smiles),measurement,setting,value
O=[N+]([O-])/C=C/c1cn(Cc2ccc(F)cc2)c2ccccc12,EC50,[1],16.4 µM (active)
same,EC50,[2],15.2 µM (active)
same,IC50,[3],4.49 µM (active)
same,AC50,[4],16.9 µM (active)
same,AC50,[5],8.8 µM (active)
same,AC50,[6],3.2 µM (active)
COc1ccc(-c2noc(CCCCC(=O)N3CCN(c4cc(C)ccc4C)CC3)n2)cc1,AC50,[7],2.2 µM (active)
same,IC50,[8],2.84 µM (active)
same,AC50,[9],1.75 µM (active)
O=C1NC(=O)C(=NNc2cc([N+](=O)[O-])ccc2O)C(=O)N1,AC50,[10],111 µM (active)
same,EC50,[11],3.79 µM (active)
same,AC50,[12],4.84 µM (active)
same,IC50,[13],11.4 µM (active)
O=S(=O)(c1ccc(Br)cc1)N1CCN(c2ccc3nnc(-c4ccccc4)n3n2)CC1,IC50,[14],8.5 µM (active)
same,CC50,[15],32.9 µM (active)
C=C[C@]1(C)C[C@@H](OC(=O)CSCCN(CC)CC)[C@]2(C)[C@H](C)CC[C@]3(CCC(=O)[C@H]32)[C@@H](C)[C@@H]1O [TIAMULIN FUMARATE],EC50,[16],> 60 µM (not active)
same,EC50,[17],1.75 µM (active)
same,IC50,[3],39.8 µM (inactive)
same,EC50,[18],< 0.06 µM (active)
same,EC50,[19],< 0.06 µM (active)
O=C(C[C@@H]1C/C=C\C[C@@H](NC(=O)OCC2c3ccccc3-c3ccccc32)C(=O)OC[C@@H](Cc2ccccc2)NC1=O)NCCO,IC50,[8],13.5 µM (active)
C[C@H](NC(=O)c1ccco1)C(=O)Nc1nc(-c2ccccn2)cs1,AC50,[10],90.1 µM (active)
CCOc1ccc(NC(=S)NNc2ccnc3cc(Cl)ccc23)cc1,IC50,[8],11.4 µM (active)
